Reference: patent publication US20110060013A1, “THIAZOLES AND PYRAZOLES USEFUL AS KINASE INHIBITORS” (VERTEX PHARMACEUTICALS INCORPORATED, priority 2007, published 2011)

How the values were obtained:
[1] = molecular target: Aurora-1 (Aurora B) (Homo sapiens, UniProt Q96GD4); assay: Aurora-1 (Aurora B) inhibition assay (radiometric); type: biochemical; conditions: 800 μM [γ-33P]-ATP, Kemptide, 25° C., 3 hours
Protocol: An assay buffer solution was prepared which consisted of 25 mM HEPES (pH 7.5), 10 mM MgCl2, 0.1% BSA and 10% glycerol. A 22 nM Aurora-B solution, also containing 1.7 mM DTT and 1.5 mM Kemptide (LRRASLG), was prepared in assay buffer. To 22 μL of the Aurora-B solution, in a 96-well plate, was added 2 μl of a compound stock solution in DMSO and the mixture allowed to equilibrate for 10 minutes at 25° C. The enzyme reaction was initiated by the addition of 16 μl stock [γ-^33P]-ATP solution (˜20 nCi/μL) prepared in assay buffer, to a final assay concentration of 800 μM. The reaction was stopped after 3 hours by the addition of 16 μL 500 mM phosphoric acid and the levels of ^33P incorporation into the peptide substrate were determined by the following method.
A phosphocellulose 96-well plate (Millipore, Cat no. MAPHNOB50) was pre-treated with 100 μL of a 100 mM phosphoric acid prior to the addition of the enzyme reaction mixture (40 μL). […] Levels of non-enzyme catalyzed background radioactivity were determined by adding 16 μL of the 500 mM phosphoric acid to control wells, containing all assay components (which acts to denature the enzyme), prior to the addition of the [γ-^33P]-ATP solution. Levels of enzyme catalyzed ^33P incorporation were calculated by subtracting mean background counts from those measured at each inhibitor concentration. […]

[2] = molecular target: T1, Aurora-2 (Aurora A) (Homo sapiens, UniProt O14965); assay: Aurora-2 (Aurora A) inhibition, coupled enzyme assay; type: biochemical; conditions: 400 μM ATP, 570 μM Kemptide, 40 nM Aurora-2, 30° C.
T1 sequence (O14965 1-403): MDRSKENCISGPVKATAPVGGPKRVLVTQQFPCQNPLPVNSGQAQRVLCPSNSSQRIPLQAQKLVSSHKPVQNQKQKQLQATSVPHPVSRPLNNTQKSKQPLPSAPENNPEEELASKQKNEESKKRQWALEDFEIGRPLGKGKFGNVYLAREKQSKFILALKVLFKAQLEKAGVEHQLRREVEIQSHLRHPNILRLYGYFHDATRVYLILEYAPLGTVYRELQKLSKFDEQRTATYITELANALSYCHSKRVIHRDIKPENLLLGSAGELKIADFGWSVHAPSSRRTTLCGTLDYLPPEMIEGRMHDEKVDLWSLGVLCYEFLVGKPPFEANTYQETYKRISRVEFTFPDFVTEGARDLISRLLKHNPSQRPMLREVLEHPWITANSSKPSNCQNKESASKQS
Protocol: Compounds were screened for their ability to inhibit Aurora-2 using a standard coupled enzyme assay (Fox et al., Protein Sci., (1998) 7, 2249). Assays were carried out in a mixture of 100 mM Hepes (pH7.5), 10 mM MgCl2, 1 mM DTT, 25 mM NaCl, 2.5 mM phosphoenolpyruvate, 300 μM NADH, 30 μg/ml pyruvate kinase and 10 μg/ml lactate dehydrogenase. Final substrate concentrations in the assay were 400 μM ATP (Sigma Chemicals) and 570 μM peptide (Kemptide, American Peptide, Sunnyvale, Calif.). Assays were carried out at 30° C. and in the presence of 40 nM Aurora-2.
An assay stock buffer solution was prepared containing all of the reagents listed above, with the exception of Aurora-2 and the test compound of interest. 55 μl of the stock solution was placed in a 96 well plate followed by addition of 2 μl of DMSO stock containing serial dilutions of the test compound (typically starting from a final concentration of 7.5 μM). The plate was preincubated for 10 minutes at 30° C. and the reaction initiated by addition of 10 μl of Aurora-2. Initial reaction rates were determined with a Molecular Devices SpectraMax Plus plate reader over a 10 minute time course. IC50 and Ki data were calculated from non-linear regression analysis using the Prism software package (GraphPad Prism version 3.0cx for Macintosh, GraphPad Software, San Diego Calif., USA).

Aurora-1 (Aurora B), sequence (Q96GD4 whole entry): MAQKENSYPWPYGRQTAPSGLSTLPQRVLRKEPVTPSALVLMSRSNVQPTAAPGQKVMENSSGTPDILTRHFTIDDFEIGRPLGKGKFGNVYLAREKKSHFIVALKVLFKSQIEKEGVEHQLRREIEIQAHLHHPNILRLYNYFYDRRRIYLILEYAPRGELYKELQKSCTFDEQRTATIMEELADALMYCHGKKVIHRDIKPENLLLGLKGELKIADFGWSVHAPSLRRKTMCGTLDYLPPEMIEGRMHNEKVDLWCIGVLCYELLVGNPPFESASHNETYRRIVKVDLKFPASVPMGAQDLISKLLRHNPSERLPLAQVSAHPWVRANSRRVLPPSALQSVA

SMILES | Ki [1] [nM] | Ki [2] [nM]
Cc1cnc(Nc2cc(N3CC[C@H](F)C3)cc(Sc3ccc(NC(=O)C4CC4)cc3)n2)s1 [Compound 1, (S)-N-(4-(4-(3-Fluoropyrrolidin-1-yl)-6-(5-methylthiazol-2-ylamino)pyridin-2-ylthio)phenyl)cyclopropanecarboxamide] | < 1000 | < 100
Cc1cc(Nc2cc(N3CC[C@H](F)C3)cc(Sc3ccc(NC(=O)C4CC4)cc3)n2)[nH]n1 [Compound 2, (S)-N-(4-(4-(3-Fluoropyrrolidin-1-yl)-6-(3-methyl-1H-pyrazol-5-ylamino)pyridin-2-ylthio)phenyl)cyclopropanecarboxamide] | < 1000 | < 100
